# Results from PubChem BioAssay AID1963965 (Molecular Pharmacology Branch, DTP, NCI, 2024).
# System: 996289-038-R-J1-PDC spheroid viability
# Assay: Anticancer human tumor 996289-038-R-J1-PDC patient-derived colon adenocarcinoma cell line growth inhibition [PI3K]
# Conditions: spheroids with HUVEC and MSC; for viability, T/C: stronger effect = lower value
# Outline: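 Multi-cell spheroids combine tumor cells with HUVEC and human MSCs, treated with targeted agents alone or with inavolisib, alpelisib, duvelisib or copanlisib. Concentrations fall in half-log steps from at or near clinical Cmax, or from 10 microM where Cmax is unknown; viability read-out.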
# 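Also: spheroids exposed to compounds for seven days before viability read.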
# 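For viability, T/C in this document: luminescence used as a proxy for viable cell amount; percent viability relative to DMSO vehicle control as 100%.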
structure (smiles),measurement,setting,value
C=CC(=O)N1CCN(c2nc(=O)n(-c3c(C)ccnc3C(C)C)c3nc(-c4c(O)cccc4F)c(F)cc23)C(C)C1 (stereo not given) + COc1c(OCCCN2CCOCC2)ccc2c3n(c(=NC(=O)c4cnc(N)nc4)nc12)CCN3,IC50,"curve of first compound, second compound 0.00316 µM",> 10 µM
same,IC50,"curve of first compound, second compound 0.01 µM",> 10 µM
same,IC50,"curve of first compound, second compound 0.0316 µM",> 10 µM
same,IC50,"curve of first compound, second compound 0.1 µM",> 10 µM
same,IC50,"curve of first compound, second compound 0.316 µM",< 0.0316 µM
same,IC50,"curve of first compound, second compound 1 µM",< 0.0316 µM
same,"viability, T/C","second compound 0.00316 µM, first compound 0.0316 µM",99.8%
same,"viability, T/C","second compound 0.00316 µM, first compound 0.1 µM",99.1%
same,"viability, T/C","second compound 0.00316 µM, first compound 0.316 µM",118%
same,"viability, T/C","second compound 0.00316 µM, first compound 1 µM",129%
same,"viability, T/C","second compound 0.00316 µM, first compound 3.16 µM",137%
same,"viability, T/C","second compound 0.00316 µM, first compound 10 µM",104%
same,"viability, T/C","second compound 0.01 µM, first compound 0.0316 µM",99.8%
same,"viability, T/C","second compound 0.01 µM, first compound 0.1 µM",92.7%
same,"viability, T/C","second compound 0.01 µM, first compound 0.316 µM",108%
same,"viability, T/C","second compound 0.01 µM, first compound 1 µM",99.9%
same,"viability, T/C","second compound 0.01 µM, first compound 3.16 µM",106%
same,"viability, T/C","second compound 0.01 µM, first compound 10 µM",109%
same,"viability, T/C","second compound 0.0316 µM, first compound 0.0316 µM",82.6%
same,"viability, T/C","second compound 0.0316 µM, first compound 0.1 µM",88.3%
same,"viability, T/C","second compound 0.0316 µM, first compound 0.316 µM",85.4%
same,"viability, T/C","second compound 0.0316 µM, first compound 1 µM",81.5%
same,"viability, T/C","second compound 0.0316 µM, first compound 3.16 µM",90.7%
same,"viability, T/C","second compound 0.0316 µM, first compound 10 µM",85.6%
same,"viability, T/C","second compound 0.1 µM, first compound 0.0316 µM",60.7%
same,"viability, T/C","second compound 0.1 µM, first compound 0.1 µM",52.7%
same,"viability, T/C","second compound 0.1 µM, first compound 0.316 µM",62.5%
same,"viability, T/C","second compound 0.1 µM, first compound 1 µM",74.3%
same,"viability, T/C","second compound 0.1 µM, first compound 3.16 µM",70.8%
same,"viability, T/C","second compound 0.1 µM, first compound 10 µM",71.9%
same,"viability, T/C","second compound 0.316 µM, first compound 0.0316 µM",37.7%
same,"viability, T/C","second compound 0.316 µM, first compound 0.1 µM",42.5%
same,"viability, T/C","second compound 0.316 µM, first compound 0.316 µM",38.2%
same,"viability, T/C","second compound 0.316 µM, first compound 1 µM",42%
same,"viability, T/C","second compound 0.316 µM, first compound 3.16 µM",48.2%
same,"viability, T/C","second compound 0.316 µM, first compound 10 µM",40.5%
same,"viability, T/C","second compound 1 µM, first compound 0.0316 µM",21%
same,"viability, T/C","second compound 1 µM, first compound 0.1 µM",22.6%
same,"viability, T/C","second compound 1 µM, first compound 0.316 µM",20.4%
same,"viability, T/C","second compound 1 µM, first compound 1 µM",22%
same,"viability, T/C","second compound 1 µM, first compound 3.16 µM",23.3%
same,"viability, T/C","second compound 1 µM, first compound 10 µM",20.7%
C=CC(=O)N1CCN(c2nc(=O)n(-c3c(C)ccnc3C(C)C)c3nc(-c4c(O)cccc4F)c(F)cc23)C(C)C1 (stereo not given),"viability, T/C",compound 0.0316 µM,99.2% [middle of 4 runs]
same,"viability, T/C",compound 0.1 µM,97.6% [middle of 4 runs]
same,"viability, T/C",compound 1 µM,106% [middle of 4 runs]
same,"viability, T/C",compound 3.16 µM,117% [middle of 4 runs]
same,"viability, T/C",compound 10 µM,111% [middle of 4 runs]
same,IC50,curve of compound,> 10 µM
COc1c(OCCCN2CCOCC2)ccc2c3n(c(=NC(=O)c4cnc(N)nc4)nc12)CCN3,"viability, T/C",compound 0.00316 µM,96.3% [middle of 8 runs]
same,"viability, T/C",compound 0.01 µM,96.2% [middle of 8 runs]
same,"viability, T/C",compound 0.0316 µM,76.4% [middle of 8 runs]
same,"viability, T/C",compound 0.1 µM,61.7% [middle of 8 runs]
same,"viability, T/C",compound 0.316 µM,36.1% [middle of 8 runs]
same,"viability, T/C",compound 1 µM,21.6% [middle of 8 runs]
same,IC50,"compound alone, run of 06/13/2023",162 nM [middle of 8 runs]
